This is an account of results in patent US7381707B2, “Treatment of dry eye” (Johnson & Johnson Consumer Companies, Inc., priority 2005, dated 2008).

Entries after “also recorded” stand apart in the source; their conditions may differ. No end group written: not given here.

The subject of one assay is Mucin 1 (MUC1). As to the kind of experiment: MUC1 gene expression (RT-PCR) in human corneal epithelial equivalents. Format: cell-based. The conditions noted are these: 200 μM; for Fold Change (MUC1:GAPDH): treatment refreshed every day, harvested end of 6th day, band density normalized against GAPDH. How it is done:
Human corneal equivalents were purchased from SkinEthic Laboratories (Nice, France). Equivalents were allowed to equilibrate in SkinEthic growth medium overnight at 5% CO2, and were then treated with SLIGRL (SEQ.ID.NO.17) (200 μM), LIGR (SEQ.ID.NO.1) (200 μM) or Phosphate buffered saline (PBS) as a control. Treatment was refreshed everyday. At the end of the 6th day, equivalent samples were harvested. Total RNA was extracted from the equivalents using RNAqueous™ kit (Ambion, Austin, Tex.) according to manufacture's instructions. RNA samples were then treated with DNA-free kit (Ambion, Austin Tex.). 25 nanograms of total RNA from each sample were amplified using OneStep RT-PCR kit (Qiagen, Valencia, Calif.) according to the manufacture's instructions. PCR Primers were synthesized by Integrated DNA Technologies (Coralville, Iowa). Each RT-PCR reaction contained 30 pmol of each primer of MUC1 or 10 pmol of each primer of glyceraldehyde-3-phosphate dehydrogenase (GAPDH). Each PCR cycle consisted of denaturing for 50 seconds at 94° C., annealing for 1 minutes at 58° C., elongation for 1 minute at 72° C. The PCR products were resolved by electrophoresis in 1% agarose gel and stained with ethidium bromide. Kodak Gel logic 100 imaging system was used to take gel pictures and analyze product band density.
All sample densities were normalized against GAPDH.

Assay [1] has as its system Human primary neonatal keratinocytes. As to the kind of experiment: Secretion of inflammatory mediators by primary keratinocytes (ELISA / Beadlyte). Format: cell-based. The conditions noted are these: 50 μM, 24 hours; for Fold change in the secretion of inflammatory mediators: IL-6 / Fold change in the secretion of inflammatory mediators: IL-8 / Fold change in the secretion of inflammatory mediators: PGE2 / Fold change in the secretion of inflammatory mediators: PGF2α: cell media; for Fold change in the secretion of inflammatory mediators: IL-6 / Fold change in the secretion of inflammatory mediators: IL-8: Beadlyte; for Fold change in the secretion of inflammatory mediators: PGE2 / Fold change in the secretion of inflammatory mediators: PGF2α: ELISA. How it is done: Human primary neonatal keratinocytes were purchased from Cascade Biologics (Portland, Oreg.). Cells were cultured in Media 154 supplemented with human keratinocytes growth supplement (Cascade Biologics) and were maintained at <80% confluency. Cells were plated at 6×10^4 per well in 24 well plate and allowed to attach to the well overnight with 5% CO2. Cells were then treated with LIGR (50 μM), SLIGRL (50 μM), the control, scrambled peptide ISLLRG (SEQ.ID.NO.18) (50 μM) or left untreated. Each treatment was done in triplicates. 24 hours later, cell media were collected and examined for the expression and secretion of the inflammatory mediators PGE2, PGF2α, IL-8 and IL-6. PGE2 and PGF2α, using ELISA kits (Cayman Chemicals, Ann Arbor, Mich.) according to manufacturer's instructions. IL-8 and IL-6 levels were detected using Beadlyte Human Multi-cytokine Detection System (Upstate Cell Signaling Solutions, Lake Placid, N.Y.) according to manufacturer's instructions. The experiment was repeated 4 times with different lots of primary keratinocytes.
Background: An ELISA detects its analyte on a solid surface through an enzyme-linked reagent.

The subject of the next assay is Cyclooxygenase-2 (COX-2). The experiment in a line: COX-2 expression (RT-PCR) in skin of topically treated mice. Particulars: for COX-2:GAPDH: 100 μM in 70:30 ethanol:propylene glycol, once daily for 2 weeks (M-F), skin RT-PCR. Format: in vivo, SKH1 hairless mice. How it is done:
SKH1 hairless mice, were purchased from Charles River (Kingston, N.Y.), and were housed in appropriately sized cages in an environmentally controlled room with a 12-hour light—12-hour dark photoperiod and supplied with food and water ad libitum. Mice were either untreated, or treated with LIGR or SLIGRL (From California Research Peptide Research Inc. Napa, Calif.), at 100 μM, in 70:30 ethanol: propylene glycol vehicle, once daily for 2 weeks (M-F, no treatment on weekends). Following ten days of treatment, mice were sacrificed and skin samples were processed for RNA extraction and RT-PCR. The treated skins were analyzed for the expression of Cyclooxygenase-2 (COX-2), a known inflammatory mediator. Total RNA (25 ng) from each sample was subjected to one step RT-PCR reaction using OneStep RT-PCR Kit (QIAGEN®, Valencia, Calif.) according to manufacturer's instructions. The reverse transcription was carried out for 30 minutes at 50° C. and a hot start of 15 minutes at 95° C. was then included to activate HotStarTaq™ DNA polymerase in the reaction mix. PCR Primers were synthesized by Integrated DNA Technologies (Coralville, Iowa). Each RT-PCR reaction contained 30 pmol of each primer of COX-2 or 10 pmol of each primer of GAPDH. Each PCR cycle consisted of denaturing for 50 seconds at 94° C., annealing for 1 minute at 58° C., elongation for 1 minute at 72° C. The PCR products were resolved by electrophoresis in 1% agarose gel and stained with ethidium bromide. Kodak Gel logic 100 imaging system was used to take gel pictures and analyze product band density.
The results of this study are shown in Table 5, as expressed in the ratio of COX-2 expression to the expression of the housekeeping gene GAPDH. […] This in vivo study further supports that LIGR is not a classic PAR-2 activator, and is not inducing pro-inflammatory mediators under physiological conditions.

The next assay has as its system HaCaT cells. The experiment in a line: Intracellular Ca2+ mobilization (FLIPR) in HaCaT cells. Format: cell-based. The conditions noted are these: for Intracellular calcium mobilization (in words): SLIGRL 4-40 μM, LIGR and scrambled peptide at concentrations as high as 800 μM. On the procedure: HaCaT cells were seeded in a black-wall 96-well plate at about 20,000 cells/100 μl/well and grown overnight in culture medium prior to the experiment. On the day of the experiment, cells were loaded with 100 μl of Calcium Plus assay reagent component A (FLEXstation calcium Plus Assay Kit, Molecular Devices, Sunnyvale, Calif.) prepared in Hanks' Balanced Salt Solution (HBSS, Mediatech, Inc., Herndon, Va.) for 30 minutes according to the manufacturer's protocol. After loading the cells, SLIGRL, LIGR and ISSLRG (at 5× concentration in 50 μl) were added to all wells (final volume 250 μl/well), and intracellular Ca^2+ levels were subsequently assayed using the FLIPR system (Molecular Devices, Sunnyvale, Calif.) to simultaneously monitor fluorescence in all wells (Wavelength−excitation=488 nm, Wavelength−emission=510 nm) according to the manufacture's protocol. The fluorescence intensity was captured every 3 seconds for the first 3 minutes after the addition of the peptides. The results of this study are shown in Table 6, in fluorescence units.

In another assay the target is T1, PAR-2 (Rattus norvegicus, UniProt Q63645).
T1 construct: host or cells: rats in vivo (endogenous receptor)
T1 sequence (Q63645 26-397): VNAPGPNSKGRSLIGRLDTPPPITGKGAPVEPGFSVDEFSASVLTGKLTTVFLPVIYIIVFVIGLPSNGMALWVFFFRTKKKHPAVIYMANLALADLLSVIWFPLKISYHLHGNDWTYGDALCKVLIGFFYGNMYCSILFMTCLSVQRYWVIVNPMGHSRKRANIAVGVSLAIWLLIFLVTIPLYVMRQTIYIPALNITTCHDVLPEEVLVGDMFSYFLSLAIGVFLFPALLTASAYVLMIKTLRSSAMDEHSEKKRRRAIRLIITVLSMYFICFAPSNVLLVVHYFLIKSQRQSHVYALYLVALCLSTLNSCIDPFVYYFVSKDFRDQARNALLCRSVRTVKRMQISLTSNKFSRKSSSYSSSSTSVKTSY
Particulars: rats; Nishikawa H et al, J Pharmacol Exp Ther. 2005; cited from earlier work.

Regarding H2-Leu-Ile-Gly-Arg-NH2 (H-LIGR-NH2), in the assay with Mucin 1 (MUC1), the “Fold Change (MUC1:GAPDH)” value is reported as 2.1. Further, in the assay with Mucin 1 (MUC1) (corneal epithelial equivalents), the “Induction of expression of the MUC1 gene (in words)” value is “induces the expression of the mucin1 gene; also recorded: induced the expression of the MUC1 gene”. In addition, in assay [1], the “Induction of inflammatory mediators (in words)” value is recorded as “does not induce the secretion of inflammatory mediators; also recorded: did not induce these inflammatory mediators”, the “Fold change in the secretion of inflammatory mediators: IL-6” value (“Fold change in the secretion … IL-6” below) is on record as 1.2, the “Fold change in the secretion of inflammatory mediators: IL-8” value (“Fold change in the secretion … IL-8” for short) was 1.0 and the “Fold change in the secretion of inflammatory mediators: PGE2” value (from here on “Fold change in the secretion … PGE2”) is on record as 0.8. For the same substance, in assay [1], the “Fold change in the secretion of inflammatory mediators: PGF2α” value (from here on “Fold change in the secretion … PGF2α”) came to 0.9. Moreover, the “COX-2:GAPDH” value with Cyclooxygenase-2 (COX-2) stood at 0.275. Moreover, the Fluorescence intensity in the assay with HaCaT cells (40 μM peptide) was found to be 628.27 fluorescence units. This substance also showed a Fluorescence intensity in the assay on HaCaT cells (200 μM peptide) of 424.315 fluorescence units. In the assay on HaCaT cells (800 μM peptide), this substance showed a Fluorescence intensity of 556.105 fluorescence units. Besides, the “Intracellular calcium mobilization (in words)” value in the assay on HaCaT cells is reported as “does not induce calcium mobilization; also recorded: do not induce intracellular calcium mobilization”.
In the case of “ISLLRG (ISSLRG; SYTHETIC PEPTIDE) [the control, scrambled peptide]”, in assay [1], the “Induction of inflammatory mediators (in words)” value was “did not induce these inflammatory mediators”, the “Fold change in the secretion … IL-6” value worked out at 1.1, the “Fold change in the secretion … IL-8” value came out at 1.0 and the “Fold change in the secretion … PGE2” value is listed as 0.8. The “Fold change in the secretion … PGF2α” value in assay [1] stood at 1.0. Moreover, the Fluorescence intensity with HaCaT cells (40 μM peptide) is on record as 535.54 fluorescence units. Besides, the Fluorescence intensity in the assay with HaCaT cells (400 μM peptide) is given as 744.95 fluorescence units. The “Intracellular calcium mobilization (in words)” value in the assay with HaCaT cells is on record as “do not induce intracellular calcium mobilization”.
Turning to SLIGRL-NH2, in the assay on Mucin 1 (MUC1), the “Fold Change (MUC1:GAPDH)” value turned out to be 0.7. In assay [1], the “Increase in the expression and secretion of several inflammatory mediators” value is listed as 1.5-3 times; the “Fold change in the secretion … IL-6” value is 2.7; the “Fold change in the secretion … IL-8” value worked out at 3.0; the “Fold change in the secretion … PGE2” value was 2.3. Also, the “Fold change in the secretion … PGF2α” value in assay [1] amounted to 1.5. In the assay on Cyclooxygenase-2 (COX-2), the “COX-2:GAPDH” value is given as 1.168. Further, the “COX-2 expression in vivo (in words)” value with Cyclooxygenase-2 (COX-2) (100 μM topical, mouse skin) is listed as “increased”. Moreover, the Fluorescence intensity in the assay with HaCaT cells (4 μM peptide) is 1386.9 fluorescence units. The substance also returned a Fluorescence intensity with HaCaT cells (8 μM peptide) of 1904.015 fluorescence units. For the same substance, in the assay on HaCaT cells (20 μM peptide), the Fluorescence intensity stood at 2003.095 fluorescence units. The Fluorescence intensity with HaCaT cells (40 μM peptide) turned out to be 2842.92 fluorescence units. Moreover, the “Intracellular calcium mobilization (in words)” value with HaCaT cells is “dose dependent increase”. In the assay with PAR-2, the “Tear secretion (in words)” value is “induce Tear Secretion”.
